# Source: patent publication US8735609B2, “Bryostatin analogues, synthetic methods and uses” (The Board of Trustees of the Leland Stanford Junior …, priority 2007, dated 2014)
# Key:
# TK-10 = assay: NCI human cancer cell line growth inhibition: TK-10 (Renal); type: cell-based; conditions: Homo sapiens
# MDA-MB-231/ATCC = assay: NCI human cancer cell line growth inhibition: MDA-MB-231/ATCC (Breast); type: cell-based; conditions: Homo sapiens
# SK-MEL-28 = assay: NCI human cancer cell line growth inhibition: SK-MEL-28 (Melanoma); type: cell-based; conditions: Homo sapiens
# DU-145 = assay: NCI human cancer cell line growth inhibition: DU-145 (Prostate); type: cell-based; conditions: Homo sapiens
# OVCAR-5 = assay: NCI human cancer cell line growth inhibition: OVCAR-5 (Ovarian); type: cell-based; conditions: Homo sapiens
# HT29 = assay: NCI human cancer cell line growth inhibition: HT29 (Colon); type: cell-based; conditions: Homo sapiens, HT-29
# K-562 = assay: NCI human cancer cell line growth inhibition: K-562 (Leukemia); type: cell-based; conditions: Homo sapiens, K562
# RPMI-8226 = assay: NCI human cancer cell line growth inhibition: RPMI-8226 (Leukemia); type: cell-based; conditions: Homo sapiens
# COLO 205 = assay: NCI human cancer cell line growth inhibition: COLO 205 (Colon); type: cell-based; conditions: Homo sapiens
# MDA-MB-435 = assay: NCI human cancer cell line growth inhibition: MDA-MB-435 (Breast); type: cell-based; conditions: Homo sapiens
# MI4 = assay: NCI human cancer cell line growth inhibition: MI4 (Melanoma); type: cell-based; conditions: Homo sapiens
# SNB-75 = assay: NCI human cancer cell line growth inhibition: SNB-75 (CNS); type: cell-based; conditions: Homo sapiens
# ACHN = assay: NCI human cancer cell line growth inhibition: ACHN (Renal); type: cell-based; conditions: Homo sapiens
# MOLT-4 = assay: NCI human cancer cell line growth inhibition: MOLT-4 (Leukemia); type: cell-based; conditions: Homo sapiens
# UACC-257 = assay: NCI human cancer cell line growth inhibition: UACC-257 (Melanoma); type: cell-based; conditions: Homo sapiens
# SR = assay: NCI human cancer cell line growth inhibition: SR (Leukemia); type: cell-based; conditions: Homo sapiens
# UO-31 = assay: NCI human cancer cell line growth inhibition: UO-31 (Renal); type: cell-based; conditions: Homo sapiens
# OVCAR-3 = assay: NCI human cancer cell line growth inhibition: OVCAR-3 (Ovarian); type: cell-based; conditions: Homo sapiens
# SF-295 = assay: NCI human cancer cell line growth inhibition: SF-295 (CNS); type: cell-based; conditions: Homo sapiens
# PKCδ-C1B = molecular target: T1, PKCδ-C1B (Mus musculus, UniProt P28867); assay: PKCδ-C1B assay; type: binding
# T1 construct: made in house
# T1 sequence (P28867 231-281 limits assumed): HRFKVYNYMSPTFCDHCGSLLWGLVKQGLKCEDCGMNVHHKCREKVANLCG
# Method: Phosphatidyl serine vesicles are prepared by the addition of phosphatidyl serine (10 mg/mL in chloroform, 0.4 mL) to a glass test tube followed by removal of the chloroform under a stream of nitrogen (5 min). […] The resulting solution is stored over ice. […] Stock solutions of compounds are diluted with absolute ethanol in glass in serial fashion. […] The tubes are incubated at 37° C. for 90 min. and then put on ice for 5 min. Each tube is then filtered separately through a pre-soaked filter disc. […] The filter is subsequently rinsed with cold 20 mM TRIS buffer (5 mL) dropwise. […] The filters are immediately counted in a scintillation counter (Beckman LS 6000SC). Counts per minute are averaged among three trials at each concentration.
# UACC-62 = assay: NCI human cancer cell line growth inhibition: UACC-62 (Melanoma); type: cell-based; conditions: Homo sapiens
# SK-OV-3 = assay: NCI human cancer cell line growth inhibition: SK-OV-3 (Ovarian); type: cell-based; conditions: Homo sapiens
# [1] = system: NCI human cancer cell-lines; assay: In vitro inhibition of growth in NCI human cancer cell lines (panel); type: cell-based
# MCF7 = assay: NCI human cancer cell line growth inhibition: MCF7 (Breast); type: cell-based; conditions: Homo sapiens
# NCI-H460 = type: cell-based, human; conditions: Homo sapiens; NCI-H460, NSC Lung; read-out: Growth inhibition (GI50)
# HCC-2998 = assay: NCI human cancer cell line growth inhibition: HCC-2998 (Colon); type: cell-based; conditions: Homo sapiens
# OVCAR-8 = assay: NCI human cancer cell line growth inhibition: OVCAR-8 (Ovarian); type: cell-based; conditions: Homo sapiens
# SN12C = assay: NCI human cancer cell line growth inhibition: SN12C (Renal); type: cell-based; conditions: Homo sapiens
# SF-539 = assay: NCI human cancer cell line growth inhibition: SF-539 (CNS); type: cell-based; conditions: Homo sapiens
# SK-MEL-5 = assay: NCI human cancer cell line growth inhibition: SK-MEL-5 (Melanoma); type: cell-based; conditions: Homo sapiens
# SK-MEL-2 = assay: NCI human cancer cell line growth inhibition: SK-MEL-2 (Melanoma); type: cell-based; conditions: Homo sapiens
# P388 cell line = assay: P388 murine lymphocytic leukemia cell assay; type: cell-based
# Method: Cells from a P388 cell line (CellGate, Inc., Sunnyvale, Calif.) are grown in RPMI 1640 cell medium containing fetal calf serum (10%), L-glutamine, penicillin, streptomycin and are split twice weekly. All compounds are first diluted with DMSO. Later serial dilutions are done with a phosphate buffer solution (HYQ DPBS modified phosphate buffered saline). All dilutions are done in glass vials and the final DMSO concentration is always below 0.5% by volume. Final two-fold dilutions are done in a 96 well plate using cell media so that each well contains 50 μL. All compounds are assayed in quadruplicate over 12 concentrations. Cell concentration is measured using a hemacytometer and the final cell concentration is adjusted to 1×10^4 cells/mL with cell medium. The resulting solution of cells (50 μL) is then added to each well and the plates are incubated for 5 days in a 37° C., 5% CO2, humidified incubator (Sanyo CO2 incubator). MTT solution (3-[4,5-dimethylthiazol-2-yl]-2,5-diphenyltetrazolium bromide, 10 μL) is then added to each well and the plates are re-incubated under identical conditions for 2 h. To each well is then added acidified isopropanol (150 μL of i-PrOH solution containing 0.05 N HCl) and mixed thoroughly. The plates are then scanned at 595 nm and the absorbances are read (Wallac Victor 1420 Multilabel Counter). The resulting data is then analyzed to determine an ED50 value using the Prism software package (GraphPad).
# HOP-92 = assay: NCI human cancer cell line growth inhibition: HOP-92 (NSC Lung); type: cell-based; conditions: Homo sapiens
# BT-549 = assay: NCI human cancer cell line growth inhibition: BT-549 (Breast); type: cell-based; conditions: Homo sapiens
# HS 578T = assay: NCI human cancer cell line growth inhibition: HS 578T (Breast); type: cell-based; conditions: Homo sapiens
# LOX IMVI = assay: NCI human cancer cell line growth inhibition: LOX IMVI (Melanoma); type: cell-based; conditions: Homo sapiens
# CCRF-CEM = assay: NCI human cancer cell line growth inhibition: CCRF-CEM (Leukemia); type: cell-based; conditions: Homo sapiens
# U251 = assay: NCI human cancer cell line growth inhibition: U251 (CNS); type: cell-based; conditions: Homo sapiens, U-251
compound,measurement,setting,value
CCCCCCCC(=O)O[C@H]1/C(=C/C(=O)OC)C[C@H]2C[C@H](CO)OC(=O)C[C@H](O)C[C@@H]3CCC[C@H](C[C@@H]4CCO[C@H](/C=C/C(C)(C)[C@]1(O)O2)O4)O3 [Formula IIa (702.1)],GI50,TK-10,0.0933 µM
same,GI50,MDA-MB-231/ATCC,2.04 µM
same,GI50,SK-MEL-28,21.4 µM
same,GI50,DU-145,9.55 µM
same,GI50,OVCAR-5,5.25 µM
same,GI50,HT29,2.82 µM
same,GI50,K-562,0.0316 µM
same,GI50,RPMI-8226,1.51 µM
same,GI50,COLO 205,0.0832 µM
same,GI50,MDA-MB-435,0.0219 µM
same,GI50,MI4,5.5 µM
same,GI50,SNB-75,10.7 µM
same,GI50,ACHN,1.15 µM
same,GI50,MOLT-4,< 0.01 µM
same,GI50,UACC-257,7.41 µM
same,GI50,SR,7.94 µM
same,GI50,UO-31,14.1 µM
same,GI50,OVCAR-3,14.8 µM
same,GI50,SF-295,0.891 µM
same,Ki,PKCδ-C1B,0.0003 ± 7e-05 µM
same,activity in PKCδ-C1B assay compared with the corresponding C26 methyl-containing analogue,PKCδ-C1B; vs Formula 1998a where R^3 is OH,significantly higher activity
same,GI50,UACC-62,7.76 µM
same,GI50,SK-OV-3,50.1 µM
same,more active than bryostatin-1,"[1]; K-562, MOLT-4, NCI-H460, HCC-2998, TK-10, MDA-MB-435",more than 2 orders of magnitude
same,"potency compared with bryostatin-1, on average",[1]; all cell groups tested,"at least as potent, on average, as bryostatin-1"
same,GI50,MCF7,3.98 µM
same,GI50,NCI-H460,< 0.01 µM
same,GI50,HCC-2998,0.0288 µM
same,GI50,OVCAR-8,17 µM
same,GI50,SN12C,2.57 µM
same,GI50,SF-539,1.7 µM
same,GI50,SK-MEL-5,0.372 µM
same,GI50,SK-MEL-2,9.55 µM
same,activity in P388 assay compared with the corresponding C26 methyl-containing analogue,P388 cell line,significantly higher activity
same,EC50,"P388 cell line; Mus musculus, P388, 120 h, read-out: P388 Assay ED50",0.017 µM
same,GI50,HOP-92,21.4 µM
same,GI50,BT-549,19.5 µM
same,GI50,HS 578T,6.61 µM
same,GI50,LOX IMVI,3.39 µM
same,GI50,CCRF-CEM,1.55 µM
same,GI50,U251,3.98 µM
